According to patent US10144732B2 (BIOGEN MA INC., priority 2014, dated 2018):
Where “and” joins values, the source holds several entries; their conditions need not be identical. Equal entries are not always repeated. Structures can show the parent of a compound that is named as a salt.

target: T1, Human ATX protein (Homo sapiens, UniProt Q13822); assay: ATX biochemical assay (FRET, FS-3 substrate); settings: FRET assay, FS-3 2 μM, ATX 1.0 μg/mL, 30 minutes preincubation, 2 hours reaction at room temperature; read-out: IC50
T1 construct: made in house
Text: ATX (Autotaxin) is a 125 KDa glycoprotein with lysophospholipase D (LPLD) activity that generates the bioactive lipid lysophosphatidic acid (LPA) from lysophosphatidylcholine (LPC). The ATX biochemical assay utilizes a FRET (fluorescence resonance energy transfer) technology platform. The fluorescence signal of FRET substrate FS-3 is quenched due to intra-molecular FRET of a fluorophore to a non-fluorescing quencher (Ferguson, C. G., et al., Org Lett. 2006 May 11; 8(10): 2023-2026, which is incorporated by reference in its entirety). ATX catalyzes the hydrolysis of the substrate which separates the dabsyl quencher from the fluorescein reporter, which becomes fluorescent. The reaction is monitored by a SpectraMax M5 (Molecular Devices, Sunnyvale, Calif.) with at excitation wavelength 485 nm and emission wavelength […].
Fatty acid free-BSA (Sigma A8806): 10 mg/mL in H2O, stored at 4° C.
2×ATX assay buffer: 100 mM Tris, 280 mM NaCl, 10 mM KCl, 2 mM CaCl2, 2 mM MgCl2, pH 7.4.
Human ATX protein: expressed and purified in house. Stored at −80° C.
Substrate FS-3 (Echelon, L-2000): 100 μg in 77.74 μL H2O (1 mM stock), stored at −20° C.
384-well flat bottom plates—Corning #3575.
Compound dilution—All compounds were provided at 10 mM in 100% DMSO. In the first well, 2 μL of 10 mM compound was added to 78 μL of DMSO (1:40 dilution). In subsequent wells 3-fold dilution (total 10 dilutions) were performed.
1×ATX assay buffer was made up with a final concentration of 1 mg/mL fatty acid free-BSA using 2×ATX assay buffer, 10 mg/ml fatty acid free-BSA and ddH2O.
[…]. The final concentration of ATX in the reaction as 1.0 μg/mL.
2 μL per well of compounds was transferred to provide the desired concentration. The plate was centrifuged, then incubated at room temperature for 30 minutes on the shaker.
FS-3 was diluted with 1×ATX assay buffer to a concentration of FS-3 of 10 μM (5×). Then, 10 μL was added per well to the assay plate. The final concentration of FS-3 in the reaction was 2 μM. The plate was centrifuged. The plate was kept shaking at room temperature for 2 hours. Because FS-3 substrate is light sensitive, plates were kept covered and protected from light.
Fluorescence was measured using SpectraMax M5 (excitation at 485 nm/emission at 538 nm, top read).

Structure (SMILES)	IC50
O=C(CCc1nc2ccccc2s1)N1CCc2c(C(F)(F)F)nn(Cc3ccc(F)cc3)c2C1 [Example 1-14, 3-(Benzo[d]thiazol-2-yl)-1-(1-(4-fluorobenzyl)-3-(trifluoromethyl)-4,5-dihydro-1H-pyrazolo[3,4-c]pyridin-6(7H)-yl)propan-1-one]	≤ 100 nM
O=C(C[C@H]1CC[C@H](C(=O)O)CC1)N1CCc2c(C(F)(F)F)nn(C3CCCCC3)c2C1 [Example 7-19, trans-4-(2-(1-cyclohexyl-3-(trifluoromethyl)-4,5-dihydro-1H-pyrazolo[3,4-c]pyridin-6(7H)-yl)-2-oxoethyl)cyclohexanecarboxylic acid]	> 500 nM and ≤ 10000 nM
O=C(C1CCCCC1)N1CCc2c(C(F)(F)F)nn(Cc3ccc(Cl)cc3F)c2C1 [Example 1-6, (1-(4-Chloro-2-fluorobenzyl)-3-(trifluoromethyl)-4,5-dihydro-1H-pyrazolo[3,4-c]pyridin-6(7H)-yl) (cyclohexyl)methanone]	> 10000 nM
O=C(O)CCC(=O)N1CCc2c(C(F)(F)F)nn(Cc3ccc(Cl)cc3F)c2C1 [Example 14-3, 4-(1-(4-Chloro-2-fluorobenzyl)-3-(trifluoromethyl)-4,5-dihydro-1H-pyrazolo[3,4-c]pyridin-6(7H)-yl)-4-oxobutanoic acid]	≤ 100 nM
O=C(O)C1CCCN(CC(=O)N2CCc3c(C(F)(F)F)nn(Cc4ccc(F)cc4)c3C2)C1 (centres unmarked) [Example 13-7, 1-(2-(1-(4-Fluorobenzyl)-3-(trifluoromethyl)-4,5-dihydro-1H-pyrazolo[3,4-c]pyridin-6(7H)-yl)-2-oxoethyl)piperidine-3-carboxylic acid]	≤ 100 nM
O=C(C[C@H]1CC[C@H](C(=O)O)CC1)N1CCc2c(C(F)(F)F)nn(Cc3cncs3)c2C1 [Example 5-28, trans-4-(2-Oxo-2-(1-(thiazol-5-ylmethyl)-3-(trifluoromethyl)-4,5-dihydro-1H-pyrazolo[3,4-c]pyridin-6(7H)-yl)ethyl)cyclohexanecarboxylic acid]	≤ 100 nM
CN1CCC(CC(=O)N2CCc3c(C(F)(F)F)nn(Cc4ccc(Cl)cc4F)c3C2)CC1(C)C (centres unmarked) [Example 10-3, 1-(1-(4-Chloro-2-fluorobenzyl)-3-(trifluoromethyl)-4,5-dihydro-1H-pyrazolo[3,4-c]pyridin-6(7H)-yl)-2-(1,2,2-trimethylpiperidin-4-yl)ethanone TFA salt]	≤ 100 nM
O=C(CN[C@H]1CC[C@H](C(=O)O)CC1)N1CCc2c(C(F)(F)F)nn(Cc3ccc(F)cc3)c2C1 [Example 13-31, trans-4-(2-(1-(4-Fluorobenzyl)-3-(trifluoromethyl)-4,5-dihydro-1H-pyrazolo[3,4-c]pyridin-6(7H)-yl)-2-oxoethylamino)cyclohexanecarboxylic acid TFA salt]	≤ 100 nM
O=C(C[C@H]1CC[C@H](C(=O)O)CC1)N1CCc2c(C(F)(F)F)nn(Cc3ccc(F)cc3F)c2C1 [Example 5-30, trans-4-(2-(1-(2,4-Difluorobenzyl)-3-(trifluoromethyl)-4,5-dihydro-1H-pyrazolo[3,4-c]pyridin-6(7H)-yl)-2-oxoethyl)cyclohexanecarboxylic acid]	≤ 100 nM
O=C(CN[C@H]1CC[C@@H](C(=O)O)CC1)N1CCc2c(C(F)(F)F)nn(Cc3ccc(F)cc3)c2C1 [Example 13-30, cis-4-(2-(1-(4-Fluorobenzyl)-3-(trifluoromethyl)-4,5-dihydro-1H-pyrazolo[3,4-c]pyridin-6(7H)-yl)-2-oxoethylamino)cyclohexanecarboxylic acid TFA salt]	≤ 100 nM

Results, then the molecule that gave them:

IC50	Structure (SMILES)
≤ 100 nM	NC(=O)[C@H]1CC[C@H](CC(=O)N2CCc3c(C(F)(F)F)nn(Cc4ccc(F)cc4)c3C2)CC1 [Example 20-2, trans-4-(2-(1-(4-Fluorobenzyl)-3-(trifluoromethyl)-4,5-dihydro-1H-pyrazolo[3,4-c]pyridin-6(7H)-yl)-2-oxoethyl)cyclohexanecarboxamide]
≤ 100 nM	O=C(C[C@H]1CC[C@H](C(=O)O)CC1)N1CCc2c(C3CC3)nn(Cc3ccc(F)cc3)c2C1 [Example 5-38, trans-4-(2-(3-Cyclopropyl-1-(4-fluorobenzyl)-4,5-dihydro-1H-pyrazolo[3,4-c]pyridin-6(7H)-yl)-2-oxoethyl)cyclohexanecarboxylic acid]
≤ 100 nM	O=C(CC1CCC(N2CCOCC2)CC1)N1CCc2c(C(F)(F)F)nn(Cc3ccc(F)cc3)c2C1 (centres unmarked) [Example 22-10, 1-(1-(4-Fluorobenzyl)-3-(trifluoromethyl)-4,5-dihydro-1H-pyrazolo[3,4-c]pyridin-6(7H)-yl)-2-(4-morpholinocyclohexyl)ethanone TFA salt]
≤ 100 nM	CN1CCC(CC(=O)N2CCc3c(C(F)(F)F)nn(Cc4ccc(Cl)cc4F)c3C2)CC1 [Example 1-2, 1-(1-(4-Chloro-2-fluorobenzyl)-3-(trifluoromethyl)-4,5-dihydro-1H-pyrazolo[3,4-c]pyridin-6(7H)-yl)-2-(1-methylpiperidin-4-yl)ethanone]
≤ 100 nM	CC1CCC(CC(=O)N2CCc3c(C(F)(F)F)nn(Cc4ccc(Cl)cc4F)c3C2)CC1 (centres unmarked) [Example 1-21, 1-(1-(4-Chloro-2-fluorobenzyl)-3-(trifluoromethyl)-4,5-dihydro-1H-pyrazolo[3,4-c]pyridin-6(7H)-yl)-2-(4-methylcyclohexyl)ethanone]
≤ 100 nM	CS(=O)(=O)NC(=O)[C@H]1CC[C@@H](CC(=O)N2CCc3c(C(F)(F)F)nn(Cc4ccc(F)cc4)c3C2)CC1 [Example 19-2, cis-4-(2-(1-(4-fluorobenzyl)-3-(trifluoromethyl)-4,5-dihydro-1H-pyrazolo[3,4-c]pyridin-6(7H)-yl)-2-oxoethyl)-N-(methylsulfonyl)cyclohexane carboxamide]
≤ 100 nM	O=C(C[C@H]1CC[C@H](C(=O)O)CC1)N1CCc2c(C(F)(F)F)nn(Cc3ccncc3)c2C1 [Example 5-24, trans-4-(2-Oxo-2-(1-(pyridin-4-ylmethyl)-3-(trifluoromethyl)-4,5-dihydro-1H-pyrazolo[3,4-c]pyridin-6(7H)-yl)ethyl)cyclohexanecarboxylic acid]
≤ 100 nM	O=C(C[C@H]1CC[C@@H](C(=O)O)CC1)N1CCc2c(C(F)(F)F)nn(Cc3ccc(Cl)cc3)c2C1 [Example 7-6, cis-4-(2-(1-(4-chlorobenzyl)-3-(trifluoromethyl)-4,5-dihydro-1H-pyrazolo[3,4-c]pyridin-6(7H)-yl)-2-oxoethyl)cyclohexanecarboxylic acid]
≤ 100 nM	CCOC(=O)[C@H]1CC[C@H](CC(=O)N2CCc3c(C(F)(F)F)nn(Cc4cccs4)c3C2)CC1 [Example 1-46, trans-Ethyl-4-(2-oxo-2-(1-(thiophen-2-ylmethyl)-3-(trifluoromethyl)-4,5-dihydro-1H-pyrazolo[3,4-c]pyridin-6(7H)-yl)ethyl)cyclohexanecarboxylate]
≤ 100 nM	CS(=O)(=O)NC(=O)[C@H]1CC[C@H](CC(=O)N2CCc3c(C(F)(F)F)nn(Cc4ccc(F)cc4)c3C2)CC1 [Example 19-1, trans-4-(2-(1-(4-Fluorobenzyl)-3-(trifluoromethyl)-4,5-dihydro-1H-pyrazolo[3,4-c]pyridin-6(7H)-yl)-2-oxoethyl)-N-(methylsulfonyl)cyclohexanecarboxamide]
≤ 100 nM	N[C@H]1CC[C@@H](CC(=O)N2CCc3c(C(F)(F)F)nn(Cc4ccc(Cl)cc4F)c3C2)CC1 [Example 9-17, 2-(cis-4-Aminocyclohexyl)-1-(1-(4-chloro-2-fluorobenzyl)-3-(trifluoromethyl)-4,5-dihydro-1H-pyrazolo[3,4-c]pyridin-6(7H)-yl)ethanone TFA salt]
≤ 100 nM	O=C(O)C1CCC(CC(=O)N2CCc3cnn(Cc4ccc(F)cc4)c3C2)CC1 (single isomer, unassigned) [Example 7-15, 4-(2-(1-(4-Fluorobenzyl)-4,5-dihydro-1H-pyrazolo[3,4-c]pyridin-6(7H)-yl)-2-oxoethyl)cyclohexanecarboxylic acid]

same assay, conditions: IC50, FRET assay, FS-3 2 μM, ATX 1.0 μg/mL, 30 minutes preincubation, 2 hours reaction at room temperature

Structure (SMILES)	IC50 [nM]
O=C(O)C1CC2CCCC(C1)N2CC(=O)N1CCc2c(C(F)(F)F)nn(Cc3ccc(F)cc3)c2C1 (centres unmarked) [Example 13-6, 9-(2-(1-(4-Fluorobenzyl)-3-(trifluoromethyl)-4,5-dihydro-1H-pyrazolo[3,4-c]pyridin-6(7H)-yl)-2-oxoethyl)-9-azabicyclo[3.3.3.1]nonane-3-carboxylic acid]	≤ 100
